Data on four compounds can be found in ChEMBL document CHEMBL1201862, “PubChem BioAssay data set” (2004).

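Briefly, cells in 96-well plates were exposed to five compound concentrations for 48 h, and endpoints were estimated by linear interpolation. Abbreviation: GI50, concentration required for 50% inhibition of growth.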 Calls of active or inactive are those of the source. Cut-off read from the data, not from the text of the source: active = GI50 up to about 1.1 µM and inactive = higher.

Among the test systems are HL-60; SF-268; CAKI-1; SK-MEL-2; MOLT-4; TK-10; SK-OV-3; NCI-H23; OVCAR-5; OVCAR-4; 786-0; NCI/ADR-RES; RXF 393; LOX IMVI; T47D; HOP-62; MDA-MB-435; UO-31; CCRF-CEM.
Common to all, as to experiment: growth of human tumour cells (NCI), 48 h

In the case of `O=C(O)C1C2OC(C(Br)C2Br)C1C(=O)O` (centres undefined), the GI50 with HL-60, in the assay on SF-268, with CAKI-1, in the assay with SK-MEL-2, in the assay on MOLT-4 and in the assay on TK-10 was > 100 µM (inactive) each time. For the same compound, the GI50 in the assay on SK-OV-3, in the assay with NCI-H23, in the assay on OVCAR-5, in the assay on OVCAR-4, in the assay on 786-0 and with NCI/ADR-RES was > 100 µM (inactive) each time. Besides, the GI50 in the assay on RXF 393, with LOX IMVI, in the assay with T47D, in the assay with HOP-62, in the assay on MDA-MB-435 and in the assay on UO-31 was > 100 µM (inactive) in each case.

As for `C=CCSc1nn(CC=C)cc2ncnc1-2`, the GI50 in the assay on HL-60, in the assay on SF-268, in the assay with CAKI-1, in the assay on SK-MEL-2, in the assay on CCRF-CEM and in the assay on MOLT-4 was > 100 µM (inactive) each time. Further, the GI50 in the assay with TK-10, in the assay with NCI-H23, in the assay on OVCAR-5, in the assay on 786-0, in the assay on NCI/ADR-RES and in the assay with RXF 393 was > 100 µM (inactive) throughout. Moreover, the GI50 in the assay on T47D, with HOP-62, in the assay with MDA-MB-435 and in the assay with UO-31 was > 100 µM (inactive) throughout.

Turning to `COc1ccc(N2C(=O)C3c4[nH]c5ccccc5c4C4CCC(C(C)(C)C)CC4C3C2=O)c(C)c1` (centres undefined), the GI50 with HL-60, in the assay on SF-268, with CAKI-1, in the assay with CCRF-CEM, in the assay on MOLT-4 and in the assay with TK-10 was > 100 µM (inactive) each time. For the same compound, the GI50 in the assay on SK-OV-3, with NCI-H23, with OVCAR-4, in the assay with 786-0, with NCI/ADR-RES and in the assay with RXF 393 was > 100 µM (inactive) throughout. The GI50 with T47D, with HOP-62, in the assay on MDA-MB-435 and in the assay on UO-31 was > 100 µM (inactive) in each case.

As for `COc1cc2c(cc1OC)-c1[nH]c3ccc([N+](=O)[O-])cc3c1CC(=O)N2`, the GI50 in the assay on HL-60 is 2.94 µM (inactive); with SF-268, 0.881 µM (active); in the assay with CAKI-1, 2.89 µM (inactive); in the assay on SK-MEL-2 it was 3.7 µM (inactive); with CCRF-CEM, 0.975 µM (active); in the assay with MOLT-4, 1.56 µM (inactive). In addition, the GI50 with TK-10 was 2.37 µM (inactive); in the assay with SK-OV-3, 3.15 µM (inactive); with NCI-H23, 4.33 µM (inactive); with OVCAR-5 it was 3.78 µM (inactive); in the assay with OVCAR-4, 3.19 µM (inactive); in the assay on 786-0 it was 2.35 µM (inactive). Further, the GI50 with NCI/ADR-RES is > 100 µM (inactive); with RXF 393 it was 1.43 µM (inactive); in the assay on LOX IMVI, 1.55 µM (inactive); in the assay on T47D it was 7.28 µM (inactive); in the assay on HOP-62 it was 3.1 µM (inactive); with MDA-MB-435 it was 1.71 µM (inactive). Moreover, in the assay on UO-31, the GI50 was 2.36 µM (inactive).
